Test results: patent US20250241902A1, “METHODS, COMPOSITIONS AND SYSTEMS FOR EVALUATION OF VISUAL FUNCTION” (BELITE BIO, INC, priority 2022, published 2025)

What was measured:
[1] = system: adolescent STGD1 patients; assay: Clinical study: lesion size by fundus autofluorescence (FAF; DDAF/QDAF); format: in vivo, human; conditions: for FAF lesion area: subject 3, right eye
Text: Fundus autofluorescence (FAF) imaging is used as an endpoint in clinical trials. FAF is used to detect lesion growth with more than one timepoint of measurements. The change in lesion area measured by FAF can be plotted against time to calculate lesion growth rate, e.g., how fast or slow a patient's macula or retina is degenerating as compared to placebo. FAF imaging is used to compare the rate of anatomical or structural deterioration or change to evaluate a drug or treatment's therapeutic effect, e.g., reduced worsening of the retina degeneration.
In some embodiments, fundus autofluorescence (FAF) is used for evaluation of ocular disease or visual function. In some embodiments, one or more retina images of FAF is used for detection of atrophic areas. In some embodiments, one or more retina images of FAF is used to gain detailed insight into the health of the retinal pigment epithelium (RPE). In some embodiments, one or more images of FAF may be high-contrast retina images. In some embodiments, two types of decreased autofluorescence (DAF) may be quantified. In some embodiments, one type of DAF may be definite DAF (DDAF) which includes an area having a level of darkness being defined as qualitatively definite. In some embodiments, the other type of DAF may be questionable DAF (QDAF) which includes an area having a level of darkness being defined as qualitatively questionable. In some embodiments, the size of decreased autofluorescence (DAF) lesion may be the sum of all DDAF and QDAF. In some embodiments, DAF may be expressed as an area in square millimeters (mm^2).
(§1) The therapeutic effect of a compound of Formula (I), also known as Tinlarebant, was evaluated in a group of individuals with adolescent STGD. The treatment covered Phase 1b and Phase 2. Phase 1b included a 4-week treatment and a 14-day follow-up. Phase 2 included a 2-year treatment and 1-month follow-up. A total of 13 individuals received the treatment: 5 males and 8 females. All 13 individuals had STGD 1 aged 12-18 years old. All 13 individuals received the treatment of a compound of Formula (I), a RBP4 inhibitor.
(§2) The clinical study evaluated ocular and systemic safety and tolerability of the compound and determined the optimal dose, pharmacokinetics (PK), and […]. The study measured visual improvement by best corrected visual acuity (BCVA) test, self-reported visual questionnaire test, the change in lesion size by FAF, the change in retinal thickness and morphology by SD-OCT, the change in retinal sensitivity by microperimetry, and the change in quantitative AF. In addition, this study evaluated correlation between reduction in RBP4 and rate of lesion growth including change in autofluorescence.

[2] = system: adolescent STGD1 patients; assay: Clinical study (Phase 1b/2): ocular and systemic safety and tolerability; format: in vivo, human
Description: as §1, §2
In addition, the treatment was able to maintain 80%-90% RBP4 reduction from baseline throughout the study. All patients received at least 7 months of the treatment. […] Delayed dark adaptation, night vision impairment, and xanthopsia/chromatopsia were the only drug related ophthalmic adverse events.

Which “autofluorescence expansion (FAF), trend” value ([1]; cohort) does the source give for `CC(=O)N1CCc2c(C(=O)N3CCC(c4ccc(F)c(F)c4C(F)(F)F)CC3)n[nH]c2C1` [Tinlarebant] here?
The value was “trend of preventing or slowing autofluorescence expansion”.

What about the “patients who maintained no DDAF lesion growth” value ([1]; cohort) of the same molecule?
Its value is 12 of the 13.

What about the “patients with no change or reduction in QDAF area in one or both eyes” value ([1]; cohort) of the same molecule?
Its value is 6 of 11.

And the “autofluorescence expansion (FAF), trend” value ([1]; cohort, listed as compound of Formula (I))?
Its value is “trend in preventing or slowing autofluorescence expansion”.

And the “average change in QDAF area” value ([1]; left eye, cohort)?
The value was 0.1±0.11 mm^2.

And the “average change in QDAF area” value ([1]; right eye, cohort)?
Its value is 0.3±0.11 mm^2.

What about the “area size of QDAF” value ([1]; subject 3, either eye, phase 2 week 1 vs week 9) of the same molecule?
Its value is “no increase”.

And the FAF lesion area ([1]; phase 2 baseline)?
The FAF lesion area was 2.7 mm^2.

And the FAF lesion area ([1]; phase 2 month 6)?
Its FAF lesion area is 2.7 mm^2.

What about the QDAF in size ([1]; subject 4, left eye, Phase 2 Baseline vs Month 6 (FIG. 2A)) of the same molecule?
Its QDAF in size is “stabilization”.

And the QDAF in size ([1]; subject 4, left or right eye, phase 2 week 1 vs week 9)?
The QDAF in size was “no increase”.

And the QDAF/DDAF change ([1]; subject 11, both eyes, phase 2 week 1 vs week 9)?
Its QDAF/DDAF change is “transition of QDAF to DDAF”.

And the safety and tolerability ([2]; 5 mg daily, adolescent STGD1 patients)?
Its safety and tolerability is “safe and well tolerated”.

And the “adverse events requiring discontinuation of treatment” value ([2]; 13 patients)?
Its value is “no adverse events required discontinuation of treatment”.

What about the “vital signs, physical exams, electrocardiogram (ECG), organ functions” value ([2]; 13 patients) of the same molecule?
Its value is “No clinical significant findings”.

What about the severe adverse events ([2]; 13 patients, at least 7 months of treatment) of the same molecule?
Its severe adverse events is “No severe adverse events”.

What about the safety and tolerability ([2]; after approximately 7 months of treatment (1 month Phase 1b, 6 months Phase 2)) of the same molecule?
Its safety and tolerability is “safe and well tolerated”.

And the “severity of delayed dark adaptation, night vision impairment, xanthopsia/chromatopsia (drug related ophthalmic adverse events)” value ([2]; all instances, 13 patients)?
Its value is “mild and transient”.

And the “symptoms in patients with delayed dark adaptation” value ([2]; human, in vivo)?
The value was “mostly asymptomatic”.

What about the “Delayed Dark Adaptation: Frequency (subject)” value ([2]; related adverse event) of the same molecule?
The value was 8/13.

What about the “Night Vision Impairment: % Recovered” value ([2]; related adverse event) of the same molecule?
Its value is 0/1.

What about the “Night Vision Impairment: Frequency (subject)” value ([2]; related adverse event) of the same molecule?
Its value is 1/13.

And the “Xanthopsia/Chromatopsia: Frequency (subject)” value ([2]; related adverse event)?
Its value is 9/13.
